In patent US8802597B2, “Herbicidal pyrimidines” (E I du Pont de Nemours and Company, priority 2003, dated 2014):

Legend:
[1] = system: duck salad (Heteranthera limosa); test: Test C flooded paddy test; assay type: in vivo; settings: Flood, scale 0 to 100
Procedure, shortened: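 Grow to 2-leaf stage under flood; apply test chemical; maintain in greenhouse 12–14 days alongside controls; evaluate visually on 0–100 scale (100 = complete control).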

[2] = system: late watergrass (Echinochloa oryzicola); test: Test E flooded paddy water application; assay type: in vivo; settings: Flood, 21 days, scale 0 to 100 (0 no effect, 100 complete control); for Plant response rating, Watergrass, Late: 16 g ai/ha
Procedure, shortened: (§1)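 Response scored visually on a 0–100 scale (100 = complete control) at 21 days against untreated pots. Treatment was into paddy water 3 cm deep over silt loam, with plants at the 2.0–2.5-leaf stage, grown under 16-h light at 29.5/26.7 °C day/night.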

[3] = system: ducksalad (Heteranthera limosa); test: Test E flooded paddy water application; assay type: in vivo; settings: Flood, 21 days, scale 0 to 100 (0 no effect, 100 complete control); for Plant response rating, Ducksalad: 16 g ai/ha
Procedure, shortened: as §1

[4] = system: water seeded rice seedlings (Oryza sativa cv. ‘Japonica-M202’); test: Test E flooded paddy water application; assay type: in vivo; settings: Flood, 21 days, scale 0 to 100 (0 no effect, 100 complete control); for Plant response rating, Rice, Water Seeded: 16 g ai/ha
Procedure, shortened: as §1

[5] = system: junglerice (Echinochloa colona); test: Test E flooded paddy water application; assay type: in vivo; settings: Flood, 21 days, scale 0 to 100 (0 no effect, 100 complete control); for Plant response rating, Junglerice: 16 g ai/ha
Procedure, shortened: as §1

[6] = system: purple redstem (Ammannia coccinea); test: Test E flooded paddy water application; assay type: in vivo; settings: Flood, 21 days, scale 0 to 100 (0 no effect, 100 complete control); for Plant response rating, Redstem: 16 g ai/ha
Procedure, shortened: as §1

[7] = system: bearded (brdd.) sprangletop (Leptochloa fusca ssp. fascicularis); test: Test E flooded paddy water application; assay type: in vivo; settings: Flood, 21 days, scale 0 to 100 (0 no effect, 100 complete control); for Plant response rating, Sprangletop, Brdd.: 16 g ai/ha
Procedure, shortened: as §1

[8] = system: rice flatsedge (Cyperus iria); test: Test E flooded paddy water application; assay type: in vivo; settings: Flood, 21 days, scale 0 to 100 (0 no effect, 100 complete control); for Plant response rating, Flatsedge, Rice: 16 g ai/ha
Procedure, shortened: as §1

[9] = system: smallflower umbrella sedge (Cyperus difformis); test: Test E flooded paddy water application; assay type: in vivo; settings: Flood, 21 days, scale 0 to 100 (0 no effect, 100 complete control); for Plant response rating, Sedge, Umbrella: 16 g ai/ha
Procedure, shortened: as §1

[10] = system: transplanted rice seedlings (Oryza sativa cv. ‘Japonica-M202’); test: Test E flooded paddy water application; assay type: in vivo; settings: Flood, 21 days, scale 0 to 100 (0 no effect, 100 complete control); for Plant response rating, Rice, Transplanted: 16 g ai/ha
Procedure, shortened: as §1

[11] = system: barnyardgrass (Echinochloa crus-galli); test: Test E flooded paddy water application; assay type: in vivo; settings: Flood, 21 days, scale 0 to 100 (0 no effect, 100 complete control)
Procedure, shortened: as §1

## COC(=O)c1nc(C2CC2)nc(N)c1Cl [Compound 9, methyl 6-amino-5-chloro-2-cyclopropyl-4-pyrimidinecarboxylate]
[1]; 62 g ai/ha
  Plant response rating, Ducksalad: 45
[1]; 125 g ai/ha
  Plant response rating, Ducksalad: 70
[1]; 250 g ai/ha
  Plant response rating, Ducksalad: 80
[1]; 500 g ai/ha
  Plant response rating, Ducksalad: 90

## CC(C)COC(=O)c1nc(C2CC2)nc(N)c1Br [Compound 17]
[1]; 62 g ai/ha
  Plant response rating, Ducksalad: 0
[1]; 125 g ai/ha
  Plant response rating, Ducksalad: 0
[1]; 250 g ai/ha
  Plant response rating, Ducksalad: 80
[1]; 500 g ai/ha
  Plant response rating, Ducksalad: 80

## CCOC(=O)c1nc(-c2ccc(Cl)cc2)nc(N)c1Br [Compound 37]
[2]; 32 g ai/ha
  Watergrass, Late plant response rating: 0
[2]; 64 g ai/ha
  Watergrass, Late plant response rating: 0
[2]; 125 g ai/ha
  Watergrass, Late plant response rating: 0
[2]; 250 g ai/ha
  Watergrass, Late plant response rating: 0
[2]
  Plant response rating, Watergrass, Late: 0
[3]; 32 g ai/ha
  Ducksalad plant response rating: 100
[3]; 64 g ai/ha
  Ducksalad plant response rating: 100
[3]; 125 g ai/ha
  Ducksalad plant response rating: 100
[3]; 250 g ai/ha
  Ducksalad plant response rating: 100
[3]
  Plant response rating, Ducksalad: 80
[4]; 32 g ai/ha
  Rice, Water Seeded plant response rating: 0
[4]; 64 g ai/ha
  Rice, Water Seeded plant response rating: 0
[4]; 125 g ai/ha
  Rice, Water Seeded plant response rating: 0
[4]; 250 g ai/ha
  Rice, Water Seeded plant response rating: 0
[4]
  Plant response rating, Rice, Water Seeded: 0
[5]; 32 g ai/ha
  Junglerice plant response rating: 0
[5]; 64 g ai/ha
  Junglerice plant response rating: 0
[5]; 125 g ai/ha
  Junglerice plant response rating: 0
[5]; 250 g ai/ha
  Junglerice plant response rating: 0
[5]
  Plant response rating, Junglerice: 0
[6]; 32 g ai/ha
  Redstem plant response rating: 0
[6]; 64 g ai/ha
  Redstem plant response rating: 30
[6]; 125 g ai/ha
  Redstem plant response rating: 40
[6]; 250 g ai/ha
  Redstem plant response rating: 80
[6]
  Plant response rating, Redstem: 0
[7]; 32 g ai/ha
  Sprangletop, Brdd. plant response rating: 0
[7]; 64 g ai/ha
  Sprangletop, Brdd. plant response rating: 0
[7]; 125 g ai/ha
  Sprangletop, Brdd. plant response rating: 0
[7]; 250 g ai/ha
  Sprangletop, Brdd. plant response rating: 0
[7]
  Plant response rating, Sprangletop, Brdd.: 0
[8]; 32 g ai/ha
  Flatsedge, Rice plant response rating: 0
[8]; 64 g ai/ha
  Flatsedge, Rice plant response rating: 0
[8]; 125 g ai/ha
  Flatsedge, Rice plant response rating: 75
[8]; 250 g ai/ha
  Flatsedge, Rice plant response rating: 90
[8]
  Plant response rating, Flatsedge, Rice: 0
[9]; 32 g ai/ha
  Sedge, Umbrella plant response rating: 50
[9]; 64 g ai/ha
  Sedge, Umbrella plant response rating: 50
[9]; 125 g ai/ha
  Sedge, Umbrella plant response rating: 65
[9]; 250 g ai/ha
  Sedge, Umbrella plant response rating: 95
[9]
  Plant response rating, Sedge, Umbrella: 30
[10]; 32 g ai/ha
  Rice, Transplanted plant response rating: 0
[10]; 64 g ai/ha
  Rice, Transplanted plant response rating: 0
[10]; 125 g ai/ha
  Rice, Transplanted plant response rating: 0
[10]; 250 g ai/ha
  Rice, Transplanted plant response rating: 0
[10]
  Plant response rating, Rice, Transplanted: 0
[11]; 64 g ai/ha
  Barnyardgrass plant response rating: 0
[11]; 125 g ai/ha
  Barnyardgrass plant response rating: 0
[11]; 250 g ai/ha
  Barnyardgrass plant response rating: 0
[11]; 16 g ai/ha
  Plant response rating, Barnyardgrass: 0
[1]; 62 g ai/ha
  Plant response rating, Ducksalad: 95
[1]; 125 g ai/ha
  Plant response rating, Ducksalad: 95
[1]; 250 g ai/ha
  Plant response rating, Ducksalad: 100
[1]; 500 g ai/ha
  Plant response rating, Ducksalad: 100

## Nc1nc(C2CC2)nc(C(=O)OCc2ccccc2)c1Cl [Compound 78, phenylmethyl 6-amino-5-chloro-2-cyclopropyl-4-pyrimidinecarboxylate]
other
  melting point: 126 to 128 °C

## Nc1nc(C2CC2)nc(C(=O)[O-])c1Br.[Na+] [Compound 113, 6-amino-5-bromo-2-cyclopropyl-4-pyrimidinecarboxylic acid monosodium salt]
other
  melting point: > 300 °C

## CCOC(=O)c1nc(C(C)(C)C)nc(N)c1Br [Compound 36]
other
  melting point: 69 to 70 °C

## Nc1nc(C2CC2)nc(C=O)c1Br [Compound 26]
[1]; 62 g ai/ha
  Plant response rating, Ducksalad: 40
[1]; 125 g ai/ha
  Plant response rating, Ducksalad: 40
[1]; 250 g ai/ha
  Plant response rating, Ducksalad: 40
[1]; 500 g ai/ha
  Plant response rating, Ducksalad: 40

## COC(=O)c1nc(C2CC2)nc(N)c1I [Compound 7]
other
  melting point: 145 to 146 °C

## CCOC(=O)c1nc(-c2ccccc2)nc(N)c1Br [Compound 18]
other
  melting point: 110 to 111 °C

## CCCOC(=O)c1nc(C2CC2)nc(N)c1Br [Compound 15]
[1]; 62 g ai/ha
  Plant response rating, Ducksalad: 45
[1]; 125 g ai/ha
  Plant response rating, Ducksalad: 45
[1]; 250 g ai/ha
  Plant response rating, Ducksalad: 50
[1]; 500 g ai/ha
  Plant response rating, Ducksalad: 85

## COC(=O)c1nc(C2CC2)nc(N=CN(C)C)c1Br [Compound 19]
[1]; 62 g ai/ha
  Plant response rating, Ducksalad: 20
[1]; 125 g ai/ha
  Plant response rating, Ducksalad: 40
[1]; 250 g ai/ha
  Plant response rating, Ducksalad: 60
[1]; 500 g ai/ha
  Plant response rating, Ducksalad: 60

## CCCCOC(=O)c1nc(C2CC2)nc(N)c1Br [Compound 16]
[1]; 62 g ai/ha
  Plant response rating, Ducksalad: 65
[1]; 125 g ai/ha
  Plant response rating, Ducksalad: 65
[1]; 250 g ai/ha
  Plant response rating, Ducksalad: 75
[1]; 500 g ai/ha
  Plant response rating, Ducksalad: 85

## COC(=O)c1nc(C(C)C)nc(N)c1Br [Compound 3]
other
  melting point: 107 to 109 °C

## Nc1nc(C2CC2)nc(CO)c1Br [Compound 21]
other
  melting point: 182 to 185 °C

## COC(=O)c1nc(-c2ccc(Cl)cc2)nc(N)c1Cl [Compound 58, methyl 6-amino-5-chloro-2-(4-chlorophenyl)-4-pyrimidinecarboxylate]
[2]; 32 g ai/ha
  Watergrass, Late plant response rating: 0
[2]; 64 g ai/ha
  Watergrass, Late plant response rating: 0
[2]; 125 g ai/ha
  Watergrass, Late plant response rating: 0
[2]; 250 g ai/ha
  Watergrass, Late plant response rating: 0
[2]
  Plant response rating, Watergrass, Late: 0
[3]; 32 g ai/ha
  Ducksalad plant response rating: 100
[3]; 64 g ai/ha
  Ducksalad plant response rating: 100
[3]; 125 g ai/ha
  Ducksalad plant response rating: 100
[3]; 250 g ai/ha
  Ducksalad plant response rating: 100
[3]
  Plant response rating, Ducksalad: 100
[4]; 32 g ai/ha
  Rice, Water Seeded plant response rating: 0
[4]; 64 g ai/ha
  Rice, Water Seeded plant response rating: 0
[4]; 125 g ai/ha
  Rice, Water Seeded plant response rating: 0
[4]; 250 g ai/ha
  Rice, Water Seeded plant response rating: 20
[4]
  Plant response rating, Rice, Water Seeded: 0
[5]; 32 g ai/ha
  Junglerice plant response rating: 0
[5]; 64 g ai/ha
  Junglerice plant response rating: 0
[5]; 125 g ai/ha
  Junglerice plant response rating: 0
[5]; 250 g ai/ha
  Junglerice plant response rating: 0
[5]
  Plant response rating, Junglerice: 0
[6]; 32 g ai/ha
  Redstem plant response rating: 80
[6]; 64 g ai/ha
  Redstem plant response rating: 85
[6]; 125 g ai/ha
  Redstem plant response rating: 95
[6]; 250 g ai/ha
  Redstem plant response rating: 95
[6]
  Plant response rating, Redstem: 60
[7]; 32 g ai/ha
  Sprangletop, Brdd. plant response rating: 40
[7]; 64 g ai/ha
  Sprangletop, Brdd. plant response rating: 60
[7]; 125 g ai/ha
  Sprangletop, Brdd. plant response rating: 60
[7]; 250 g ai/ha
  Sprangletop, Brdd. plant response rating: 60
[7]
  Plant response rating, Sprangletop, Brdd.: 20
[8]; 32 g ai/ha
  Flatsedge, Rice plant response rating: 100
[8]; 64 g ai/ha
  Flatsedge, Rice plant response rating: 100
[8]; 125 g ai/ha
  Flatsedge, Rice plant response rating: 100
[8]; 250 g ai/ha
  Flatsedge, Rice plant response rating: 100
[8]
  Plant response rating, Flatsedge, Rice: 40
[9]; 32 g ai/ha
  Sedge, Umbrella plant response rating: 95
[9]; 64 g ai/ha
  Sedge, Umbrella plant response rating: 95
[9]; 125 g ai/ha
  Sedge, Umbrella plant response rating: 95
[9]; 250 g ai/ha
  Sedge, Umbrella plant response rating: 100
[9]
  Plant response rating, Sedge, Umbrella: 65
[10]; 32 g ai/ha
  Rice, Transplanted plant response rating: 0
[10]; 64 g ai/ha
  Rice, Transplanted plant response rating: 0
[10]; 125 g ai/ha
  Rice, Transplanted plant response rating: 0
[10]; 250 g ai/ha
  Rice, Transplanted plant response rating: 0
[10]
  Plant response rating, Rice, Transplanted: 0
other
  melting point: 215 to 218 °C

## Nc1nc(C2CC2)nc(C(=O)O)c1Br [Compound 8]
other
  melting point: 160 to 162 °C

## CNc1nc(C2CC2)nc(C(=O)OC)c1Br [Compound 5]
[1]; 62 g ai/ha
  Plant response rating, Ducksalad: 0
[1]; 125 g ai/ha
  Plant response rating, Ducksalad: 0
[1]; 250 g ai/ha
  Plant response rating, Ducksalad: 0
[1]; 500 g ai/ha
  Plant response rating, Ducksalad: 0
